# Experimental data as given in patent US6262094A (priority 1999, dated 2001).
# Columns and labels:
# Type in all cases: cell-based
# [1] = tested on: U-937 (DSM ACC 5), human histiocytic lymphoma; experiment: Growth inhibition, WST-1 reduction in microtiter plates; details: 120 h, U-937, incubation period of 5 days, read-out: IC50 K-562/U-937 leukemia
# [2] = tested on: KB-3.1 (DSM ACC 158), human cervix carcinoma; details: KB 3-1, 120 h, KB-3.1, incubation period of 5 days, MTT
# [3] = tested on: PC-3 (ATCC CRL 1435), human prostate adenocarcinoma; details: 120 h, PC-3, incubation period of 5 days, MTT
# [4] = tested on: SK-OV-3 (ATCC HTB-77), human ovary adenocarcinoma; details: 120 h, SK-OV-3, incubation period of 5 days, MTT
# [5] = tested on: A-549 (DSM ACC 107), human lung carcinoma; details: A549, 120 h, A-549, incubation period of 5 days, MTT
# [6] = tested on: K-562 (ATCC CCL-243), human chronic myelogenous leukemia; experiment: Growth inhibition, WST-1 reduction in microtiter plates; details: K562, 120 h, K-562, incubation period of 5 days, read-out: IC50 K-562/U-937 leukemia
Compound,IC50 [1],IC50 [2],IC50 [3],IC50 [4],IC50 [5],IC50 [6]
C/C(=C\c1csc(CN)n1)[C@@H]1C[C@@H]2O[C@@H]2CCC[C@H](C)[C@H](O)[C@@H](C)C(=O)C(C)(C)[C@@H](O)CC(=O)O1 [21-amino-epo A],3 ng/mL,4 ng/mL,3 ng/mL,4 ng/mL,,
"C/C(=C\c1csc(CN)n1)[C@@H]1C[C@@H]2O[C@]2(C)CCC[C@H](C)[C@H](O)[C@@H](C)C(=O)C(C)(C)[C@@H](O)CC(=O)O1 [21-amino-epo B, [1S-[1R*,3R*(E),7R*,10S*,11R*,12R*,16S*]]-3-[2-[2-(Aminomethyl)-4-thiazolyl]-1-methylethenyl]-7,11-dihydroxy-8,8,10,12,16-pentamethyl-4,17-dioxabicyclo[14.1.0]heptadecane-5,9-dione]",,0.4 ng/mL,1.5 ng/mL,,,
"C=Cc1nc(/C=C(\C)[C@@H]2C[C@@H]3O[C@@H]3CCC[C@H](C)[C@H](O)[C@@H](C)C(=O)C(C)(C)[C@@H](O)CC(=O)O2)cs1 [20-vinyl-epo A, [1S-[1R*,3R*(E),7R*,10S*,11R*,12R*,16S*]]-3-[2-(2-Ethenyl-4-thiazolyl)-1-methylethenyl]-7,11-dihydroxy-8,8,10,12-tetramethyl-4,17-dioxabicyclo[14.1. 0]heptadecane-5,9-dione]",1.5 ng/mL,3 ng/mL,0.4 ng/mL,1 ng/mL,,
C/C(=C\c1csc(CCl)n1)[C@@H]1C[C@@H]2O[C@@H]2CCC[C@H](C)[C@H](O)[C@@H](C)C(=O)C(C)(C)[C@@H](O)CC(=O)O1 [21-chloro-epo A],,60 ng/mL,,,0.01 µg/mL,0.012 µg/mL
"C/C(=C\c1csc(CN=[N+]=[N-])n1)[C@@H]1C[C@@H]2O[C@]2(C)CCC[C@H](C)[C@H](O)[C@@H](C)C(=O)C(C)(C)[C@@H](O)CC(=O)O1 [21-azido-epo B, [1S-[1R*,3R* (E),7R*, 10S*,11R*,12R*,16S*]]-3-[2-[2-(Azidomethyl)-4-thiazolyl]-1-methylethenyl]-7,11-dihydroxy-8,8,10,12,16-pentamethyl-4,17-dioxabicyclo[14.1. 0]heptadecane-5,9-dione]",,0.5 ng/mL,0.4 ng/mL,,,
